Experimental data reported in publication PMC11872507, “Lasso peptides sviceucin and siamycin I exhibit anti-virulence activity and restore vancomycin effectiveness in vancomycin-resistant pathogens” (iScience, 2025).
Values after ≈ are worked out from the molar mass of the structure shown. Positions of bridges follow the written chain, without caps; N, C: chain ends. Residues, ends and D or L forms follow the SMILES beside them. No end group written: not given here.

Assays:
E. faecalis V583 = assay: microbe, parasite or virus in culture; type: cell-based, Enterococcus faecalis; conditions: peptide alone, without vancomycin; VanB
E. faecalis JH2-2 08048 = assay: microbe, parasite or virus in culture; type: cell-based, Enterococcus faecalis; conditions: peptide alone, without vancomycin; VanB
Protocol: (§1) The MIC of vancomycin was determined by the microdilution method described in the guidelines of the European Committee on Antimicrobial Susceptibility Testing (EUCAST 2024, v14.0 Breakpoint Tables).[58] For enterococci, GM17 medium was used instead of CAMH medium since enterococci cannot degrade starch, the main carbohydrate of MH medium. 2-fold serial dilutions of the tested antibiotic were performed to obtain concentrations ranging from 0.5 to 512 μg/mL. LP were then added to the wells at the desired concentration. The medium was inoculated with a final inoculum of 5 × 10^5 CFU/mL. The MIC is the lowest concentration that prevents visible in vitro growth.

E. faecalis merz96 = assay: microbe, parasite or virus in culture; type: cell-based, Enterococcus faecalis; conditions: peptide alone, without vancomycin; VanB
E. faecium 1 231 410 = assay: microbe, parasite or virus in culture; type: cell-based, Enterococcus faecium; conditions: peptide alone, without vancomycin; VanA
E. faecalis HIP11704 = assay: microbe, parasite or virus in culture; type: cell-based, Enterococcus faecalis; conditions: peptide alone, without vancomycin; VanA
E. faecium 1 231 502 = assay: microbe, parasite or virus in culture; type: cell-based, Enterococcus faecium; conditions: peptide alone, without vancomycin; VanA
E. faecium 1 230 933 = assay: microbe, parasite or virus in culture; type: cell-based, Enterococcus faecium; conditions: peptide alone, without vancomycin; VanA
S. aureus T-SAR12 VRSA.A = assay: microbe, parasite or virus in culture; type: cell-based, Staphylococcus aureus; conditions: peptide alone, without vancomycin; VanA
Protocol: as §1

S. aureus T-SAR12 VRSA.B = assay: microbe, parasite or virus in culture; type: cell-based, Staphylococcus aureus; conditions: peptide alone, without vancomycin; VanB
Protocol: as §1

E. faecalis V583 ΔvanB = assay: microbe, parasite or virus in culture; type: cell-based, Enterococcus faecalis; conditions: peptide alone, without vancomycin; van-
S. aureus 16038 (VISA) = assay: microbe, parasite or virus in culture; type: cell-based, Staphylococcus aureus; conditions: peptide alone, without vancomycin; van-
[1] = target: T1, VanS^127-384 (VanA-type, C-His6) (Enterococcus faecium, UniProt Q06240); assay: biochemical
T1 construct: only the C-terminal His6-tagged VanA-type VanS^127-384 could be obtained as a soluble protein; made in house; host or cells: E. coli BL21(DE3), plasmid pET29b(+) vanS^127-384
Protocol: (§2) Terrific medium[68] […] The culture was incubated at 37°C with agitation at 180 rpm. Induction of protein expression was achieved by adding IPTG to a final concentration of 0.1 mM when the bacterial density reached an OD600 of 0.5. The culture was then incubated for 20 h at 25°C with agitation at 180 rpm. The cells were then washed twice in purification buffer (20 mM sodium phosphate buffer, 500 mM NaCl, 5 mM MgCl2, 10 mM imidazole (pH 7.4)). Cells were treated with lysozyme at 1 mg/mL final concentration for 30 min at 4°C and lysed by sonication with the Fisherbrand Model 120 Sonic Dismembrator (Fisher scientific, USA). The total fraction recovered was centrifuged at 10000 rpm at 4°C for 30 to 45 min and only the supernatant, representing the soluble fraction, was recovered for purification.
(§3) Protein purification was carried out on a HisTrap FF Crude 5 mL column (Cytiva, USA) using the ÄKTA start device (Cytiva, USA), following the manufacturer’s recommendations. […] Protein concentration was determined with the Pierce BCA Protein Assay Kit (Thermo Scientific, USA) according to the manufacturer’s recommendations and then stored at −80°C.
(§4) The phosphorylation assay followed reported procedure with some modifications.[38] […] The reaction was allowed to start by adding ATP and NADH, and monitored continuously at 340 nm at 37°C by a microplate reader (POLARstar OMEGA, BMG Labtech, Germany). […]

VanS^127-384 [2] = target: T2, VanS^127-384 (Enterococcus faecium, UniProt Q06240); assay: biochemical; type: binding
T2 construct: only the C-terminal His6-tagged VanA-type VanS^127-384 could be obtained as a soluble protein; made in house; host or cells: E. coli BL21(DE3), plasmid pET29b(+) vanS^127-384

[3] = tested on: all tested E. faecalis and E. faecium strains; assay: Growth inhibition / MIC, strain panel; type: cell-based; conditions: peptide alone
[4] = tested on: VanB- or VanA-type strains; conditions: same among the different VanB- or VanA-type strains
Protocol: as §1

[5] = tested on: Galleria mellonella larvae; assay: Toxicity toward larvae; type: in vivo; conditions: siamycin I-loaded nanoemulsion, about 18 mg/kg, 90 min and 24 h, observed to 96 h
Protocol: Larvae were infected with the wild-type strain E. faecalis V583, the isogenic vancomycin-sensitive mutant V583 ΔvanB, or an equivalent volume of saline solution. At t90min and t24h post-infection (p.i.), the larvae were treated with the nanoemulsion alone (referred to as formulation), the nanoemulsion loaded with siamycin I (3.92 μg/larvae; about 18 mg/kg), vancomycin (1 μg/larvae; about 4.6 mg/kg) alone, or a combination of both. Larvae survival was assessed, and statistical analysis was performed at the endpoint t96h.
To assess the C1LPs' efficacy as treatment of E. faecalis infection, the strains V583 or V583 ΔvanB were grown without previous C1LP exposition. 20 larvae were used for each condition. At 1.5 and 24 h p.i., larvae were injected with 4.76 mg of vancomycin per kilogram and/or 18 mg of siamycin I per kilogram, or the equivalent volume of nanoemulsion as a control. Larvae killing was then monitored between 1.5 and 96 h p.i.. Data and statistical analysis were performed using the Kaplan-Meier R package and the log -rank test, respectively.

[6] = target: T3, VanS^127-384 (VanA-type, C-His6) (Enterococcus faecium, UniProt Q06240); assay: biochemical; conditions: 0–100 μM peptide
T3 construct: only the C-terminal His6-tagged VanA-type VanS^127-384 could be obtained as a soluble protein; made in house; host or cells: E. coli BL21(DE3), plasmid pET29b(+) vanS^127-384
T3 sequence (Q06240 whole entry, looked up): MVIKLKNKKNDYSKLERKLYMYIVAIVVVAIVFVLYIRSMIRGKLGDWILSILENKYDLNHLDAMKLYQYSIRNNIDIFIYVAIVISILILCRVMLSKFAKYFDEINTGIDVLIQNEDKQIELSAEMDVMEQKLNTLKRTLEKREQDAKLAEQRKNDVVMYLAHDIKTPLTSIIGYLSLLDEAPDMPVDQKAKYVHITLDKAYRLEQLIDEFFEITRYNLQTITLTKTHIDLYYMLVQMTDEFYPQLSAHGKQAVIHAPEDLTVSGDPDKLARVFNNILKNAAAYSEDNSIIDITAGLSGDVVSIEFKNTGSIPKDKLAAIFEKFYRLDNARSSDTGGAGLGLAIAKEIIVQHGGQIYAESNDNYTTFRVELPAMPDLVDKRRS
Protocol: as §2, §3, §4

VanS^127-384 [7] = target: T4, VanS^127-384 (Enterococcus faecium, UniProt Q06240); assay: biochemical; type: binding; conditions: 10 μM VanS, pH 7.5; siamycin I 6 to 90 μM; sviceucin 12 to 180 μM; microcin J25 25 to 200 μM
T4 construct: only the C-terminal His6-tagged VanA-type VanS^127-384 could be obtained as a soluble protein; made in house; host or cells: E. coli BL21(DE3), plasmid pET29b(+) vanS^127-384
T4 sequence (Q06240 whole entry, looked up): T3 sequence (Q06240 whole entry, looked up)
Protocol: Protein purification was carried out on a HisTrap FF Crude 5 mL column (Cytiva, USA) using the ÄKTA start device (Cytiva, USA), following the manufacturer’s recommendations. The column was equilibrated with the purification buffer and then loaded with the soluble fraction. The protein of interest was washed and eluted with an imidazole gradient of 10 mM–500 mM in purification buffer. The purified protein was desalted and concentrated on a Vivaspin 6 30 kDa MWCO column (Cytiva, USA) according to the manufacturer’s recommendations. Protein concentration was determined with the Pierce BCA Protein Assay Kit (Thermo Scientific, USA) according to the manufacturer’s recommendations and then stored at −80°C.
All the experiments were performed in 96 Fast PCR Plates full skirt (Sarstedt, Germany) and in CFX96 Real-Time PCR system (BioRad, USA). Screening was conducted (Table S7) to determine the best buffer and ratios of protein and SYPRO Orange Protein Gel Stain (Sigma-Aldrich, USA). […] The Tm of each well was determined on the Melt Curve panel with a negative peak type. Tm means were calculated for each condition before model analysis. ΔT was calculated from the subtraction of the Tm of the protein with the buffer alone and the Tm with the lasso peptides. […]

| Molecule | Lasso peptide MIC (E. faecalis V583) | Lasso peptide MIC (E. faecalis JH2-2 08048) | Lasso peptide MIC (E. faecalis merz96) | Lasso peptide MIC (E. faecium 1 231 410) | Lasso peptide MIC (E. faecalis HIP11704) | Lasso peptide MIC (E. faecium 1 231 502) | Lasso peptide MIC (E. faecium 1 230 933) | Lasso peptide MIC (S. aureus T-SAR12 VRSA.A) | Lasso peptide MIC (S. aureus T-SAR12 VRSA.B) | Lasso peptide MIC (E. faecalis V583 ΔvanB) | Lasso peptide MIC (S. aureus 16038 (VISA)) | IC50 [1] | Kd (VanS^127-384 [2]) | MIC, complete growth inhibition [3] | MIC of peptide in absence of vancomycin [4] | toxicity toward the larvae [5] | effect on VanS^127-384 autophosphorylation, in words [6] | effect on melting temperature (Tm) of VanS^127-384, in words (VanS^127-384 [7]) |
| --- | --- | --- | --- | --- | --- | --- | --- | --- | --- | --- | --- | --- | --- | --- | --- | --- | --- | --- |
| CC[C@H](C)[C@@H]1NC(=O)[C@H](Cc2c[nH]c3ccccc23)NC(=O)[C@H](C)NC(=O)[C@H]([C@@H](C)O)NC(=O)CNC(=O)[C@@H]2CSSC[C@@H]3NC(=O)C[C@H](NC(=O)[C@H]([C@@H](C)O)NC(=O)[C@H](CSSC[C@@H](C(=O)N[C@H](C(=O)O)C(C)C)NC1=O)NC(=O)[C@H](CC(=O)O)NC(=O)CNC(=O)CNC(=O)[C@H](Cc1c[nH]c4ccccc14)NC(=O)[C@H](C(C)C)NC3=O)C(=O)N[C@@H](Cc1ccccc1)C(=O)N[C@@H](CC(C)C)C(=O)NCC(=O)N2 [Sviceucin] (CVWGGDCTDFLGCGTAWICV-OH; disulfide 1-13, 7-19; lactam N-9) | >10 µM | >10 µM | >10 µM | >10 µM | >10 µM | >10 µM | >10 µM | >10 µM | >10 µM | >10 µM | >10 µM | 10.8 ± 1.5 µM | 52 ± 1.6 µM | above 10 μM | > 10 µM |  |  |  |
| CC[C@H](C)[C@@H]1NC(=O)[C@H](C)NC(=O)[C@H](Cc2ccc(O)cc2)NC(=O)CNC(=O)[C@@H]2CSSC[C@@H]3NC(=O)C[C@H](NC(=O)[C@H](CC(N)=O)NC(=O)[C@H](CSSC[C@@H](C(=O)N[C@@H](Cc4ccccc4)C(=O)N[C@@H](Cc4c[nH]c5ccccc45)C(=O)O)NC(=O)[C@H](C(C)C)NC1=O)NC(=O)[C@H](CO)NC(=O)CNC(=O)[C@H](C(C)C)NC(=O)CNC(=O)[C@H](CC(C)C)NC3=O)C(=O)N[C@@H](Cc1ccccc1)C(=O)N[C@@H](C)C(=O)NCC(=O)N2 [Siamycin I] (CLGVGSCNDFAGCGYAIVCFW-OH; disulfide 1-13, 7-19; lactam N-9) | 5 µM | 5 µM | 5 µM | 5 µM | 5 µM | 5 µM | 5 µM | 5 µM | 5 µM | 5 µM | 5 µM |  | 38 ± 1 µM | 5 µM (≈ 10.8 µg/mL) | 5 µM | did not exhibit toxicity toward the larvae |  |  |
| Microcin J25: unrelated lasso peptide microcin J25 (GGAGHVPEYFVGIGTPISFYG; not fully specified) |  |  |  |  |  |  |  |  |  |  |  |  |  |  |  |  | had no effect on VanS^127-384 | did not affect the Tm of VanS^127-384 |
